Experimental data as given in patent US9249145B2, “Heterocyclic derivatives of pyrazol-4-yl-pyrrolo[2,3-d]pyrimidines as janus kinase inhibitors” (Incyte Holdings Corporation, priority 2009, dated 2016).
Structures can show the parent of a compound that is named as a salt. Where two headings read alike, the source gives them in different places.

How the values were obtained:
Jak2 (a.a. 828-1132) = target: T1, Jak2 (a.a. 828-1132) (Homo sapiens, UniProt O60674); assay: In vitro JAK kinase assay (HTRF, phosphorylation of biotinylated peptide), JAK2; assay type: biochemical
T1 construct: Jak2 (a.a. 828-1132); His tag (N); made in house; host or cells: insect cells (baculovirus)
T1 sequence (O60674 828-1132): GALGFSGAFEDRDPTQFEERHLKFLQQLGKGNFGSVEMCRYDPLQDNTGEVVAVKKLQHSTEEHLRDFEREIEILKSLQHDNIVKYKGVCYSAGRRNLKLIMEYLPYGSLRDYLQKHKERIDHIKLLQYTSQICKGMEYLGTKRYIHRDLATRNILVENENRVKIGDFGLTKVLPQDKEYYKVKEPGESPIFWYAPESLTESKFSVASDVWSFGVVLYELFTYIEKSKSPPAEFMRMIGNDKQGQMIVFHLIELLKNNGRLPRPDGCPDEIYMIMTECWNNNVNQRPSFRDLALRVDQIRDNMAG
Method: (§1) Compounds herein were tested for inhibitory activity of JAK targets according to the following in vitro assay described in Park et al., Analytical Biochemistry 1999, 269, 94-104. The catalytic domains of human JAK1 (a.a. 837-1142), Jak2 (a.a. 828-1132) and Jak3 (a.a. 781-1124) with an N-terminal His tag were expressed using baculovirus in insect cells and purified. The catalytic activity of JAK1, JAK2 or JAK3 was assayed by measuring the phosphorylation of a biotinylated peptide. The phosphorylated peptide was detected by homogenous time resolved fluorescence (HTRF). IC50s of compounds were measured for each kinase in the 40 microL reactions that contain the enzyme, ATP and 500 nM peptide in 50 mM Tris (pH 7.8) buffer with 100 mM NaCl, 5 mM DTT, and 0.1 mg/mL (0.01%) BSA. The ATP concentration in the reactions was 90 μM for Jak1, 30 μM for Jak2 and 3 μM for Jak3 for Km conditions. For the 1 mM IC50 measurements, ATP concentration in the reactions was 1 mM. Reactions were carried out at room temperature for 1 hr and then stopped with 20 μL 45 mM EDTA, 300 nM SA-APC, 6 nM Eu-Py20 in assay buffer (Perkin Elmer, Boston, Mass.). Binding to the Europium labeled antibody took place for 40 minutes and HTRF signal was measured on a Fusion plate reader (Perkin Elmer, Boston, Mass.). See Tables 1, 2, 3, and 4 for data related to compounds of the invention.

[1] = target: T2, human JAK1 (a.a. 837-1142) (Homo sapiens, UniProt P23458); assay: In vitro JAK kinase assay (HTRF, phosphorylation of biotinylated peptide), JAK1; assay type: biochemical
T2 construct: The catalytic domains of human JAK1 (a.a. 837-1142); His tag (N); made in house; host or cells: insect cells (baculovirus)
T2 sequence (P23458 849-1154): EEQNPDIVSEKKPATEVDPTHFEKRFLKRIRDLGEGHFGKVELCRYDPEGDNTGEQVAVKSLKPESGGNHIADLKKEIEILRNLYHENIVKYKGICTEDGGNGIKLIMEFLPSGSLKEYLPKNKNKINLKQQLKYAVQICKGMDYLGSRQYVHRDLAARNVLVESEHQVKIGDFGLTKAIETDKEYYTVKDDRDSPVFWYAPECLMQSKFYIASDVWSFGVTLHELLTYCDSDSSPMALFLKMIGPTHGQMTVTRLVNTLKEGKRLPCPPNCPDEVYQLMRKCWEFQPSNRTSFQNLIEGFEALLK
Method: as §1

[2] = 1 mM ATP, Examples 92-162, read-out: JAK2 IC50 (nM) @ 1 mM ATP
[3] = 1 mM ATP, Examples 92-162, read-out: JAK1 IC50 (nM) @ 1 mM ATP
[4] = 1 mM ATP, Examples 12-91, read-out: JAK2 IC50 (nM) @ 1 mM ATP
[5] = 1 mM ATP, Examples 12-91, read-out: JAK1 IC50 (nM) @ 1 mM ATP

`CCC(CN1CCN(S(=O)(=O)c2ccccc2Cl)CC1)n1cc(-c2ncnc3[nH]ccc23)cn1` (centres unmarked) [Example 132, 4-(1-(1-(4-(2-chlorophenylsulfonyl)piperazin-1-yl)butan-2-yl)-1H-pyrazol-4-yl)-7H-pyrrolo[2,3-d]pyrimidine] showed an IC50 (Jak2 (a.a. 828-1132); [2]) of 20 to 50 nM and an IC50 [1, 3] of under 20 nM.

In the case of `CCC(CN1CCN(S(=O)(=O)c2cccc(F)c2)CC1)n1cc(-c2ncnc3[nH]ccc23)cn1` (centres unmarked) [Example 136, 4-(1-(1-(4-(3-fluorophenylsulfonyl)piperazin-1-yl)butan-2-yl)-1H-pyrazol-4-yl)-7H-pyrrolo[2,3-d]pyrimidine], the IC50 (Jak2 (a.a. 828-1132); [2]) is reported as 20 to 50 nM and the IC50 [1, 3] is reported as under 20 nM.

With `COc1ccc(C(=O)N2CCN(CC(CC#N)n3ccc(-c4ncnc5[nH]ccc45)c3)CC2)cc1F` (centres unmarked) [Example 82, 3-(3-(7H-pyrrolo[2,3-d]pyrimidin-4-yl)-1H-pyrrol-1-yl)-4-(4-(3-fluoro-4-methoxybenzoyl)piperazin-1-yl)butanenitrile] the IC50 (Jak2 (a.a. 828-1132); [4]) was 10 to 50 nM and the IC50 [1, 5] was under 10 nM.

`C[C@@H]1CN(C(=O)c2ccc(C#N)cc2F)CCN1CC(CC#N)n1cc(-c2ncnc3[nH]ccc23)cn1` (single isomer, unassigned) [24, R-2] showed an IC50 (Jak2 (a.a. 828-1132); [4]) of over 100 nM and an IC50 [1, 5] of over 100 nM.

`CCC(CN1CCN(S(=O)(=O)c2ccc(Br)s2)CC1)n1cc(-c2ncnc3[nH]ccc23)cn1` (centres unmarked) [Example 145, 4-(1-(1-(4-(5-bromothiophen-2-ylsulfonyl)piperazin-1-yl)butan-2-yl)-1H-pyrazol-4-yl)-7H-pyrrolo[2,3-d]pyrimidine] showed an IC50 (Jak2 (a.a. 828-1132); [2]) of 20 to 50 nM and an IC50 [1, 3] of under 20 nM.

For `CCC(CN1CCN(S(=O)(=O)c2ccc(F)cc2C)CC1)n1cc(-c2ncnc3[nH]ccc23)cn1` (centres unmarked) [Example 143, 4-(1-(1-(4-(4-floro-2-methylphenylsulfonyl)piperazin-1-yl)butan-2-yl)-1H-pyrazol-4-yl)-7H-pyrrolo[2,3-d]pyrimidine], the IC50 (Jak2 (a.a. 828-1132); [2]) was over 100 nM and the IC50 [1, 3] was under 20 nM.

Work on `CCC(CN1CCN(S(=O)(=O)c2cn(C)c(C)n2)CC1)n1cc(-c2ncnc3[nH]ccc23)cn1` (centres unmarked) [Example 144, 4-(1-(1-(4-(1,2-dimethyl-1H-imidazol-4-ylsulfonyl)piperazin-1-yl)butan-2-yl)-1H-pyrazol-4-yl)-7H-pyrrolo[2,3-d]pyrimidine] yielded an IC50 (Jak2 (a.a. 828-1132); [2]) of 50 to 100 nM and an IC50 [1, 3] of 20 to 50 nM.

Work on `CS(=O)(=O)N1CCN(CC(CC#N)n2cc(-c3ncnc4[nH]ccc34)cn2)CC1` (centres unmarked) [Example 1, 4-[4-(methylsulfonyl)piperazin-1-yl]-3-[4-(7H-pyrrolo[2,3-d]pyrimidin-4-yl)-1H-pyrazol-1-yl]butanenitrile] yielded an IC50 (Jak2 (a.a. 828-1132); 1 mM ATP, Examples 1-11, read-out: IC50 (nM) @ 1 mM ATP JAK2) of 10 to 20 nM, an IC50 (Jak2 (a.a. 828-1132); Km ATP (30 μM for Jak2), Examples 1-11, read-out: IC50 (nM) @ Km ATP JAK2) of under 10 nM and an IC50 ([1]; 1 mM ATP, Examples 1-11, read-out: IC50 (nM) @ 1 mM ATP JAK1) of under 10 nM. The IC50 ([1]; Km ATP (90 μM for Jak1), Examples 1-11, read-out: IC50 (nM) @ Km ATP JAK1) was under 10 nM.

Compound `N#CCC(CN1CCCN(C(=O)c2ccc(O)cc2F)CC1)n1cc(-c2ncnc3[nH]ccc23)cn1` (centres unmarked) [Example 97, 4-[4-(2-fluoro-4-hydroxybenzoyl)-1,4-diazepan-1-yl]-3-[4-(7H-pyrrolo[2,3-d]pyrimidin-4-yl)-1H-pyrazol-1-yl]butanenitrile bis(trifluoroacetate)] has an IC50 (Jak2 (a.a. 828-1132); [2]) of over 100 nM and an IC50 [1, 3] of 20 to 50 nM.

Compound `N#CCC(CN1CCN(C(=O)c2ccc(C#N)cn2)CC1)n1cc(-c2ncnc3[nH]ccc23)cn1` (centres unmarked) [Example 20, 6-[(4-{3-cyano-2-[4-(7H-pyrrolo[2,3-d]pyrimidin-4-yl)-1H-pyrazol-1-yl]propyl}piperazin-1-yl)carbonyl]nicotinonitrile] has an IC50 (Jak2 (a.a. 828-1132); [4]) of over 100 nM and an IC50 [1, 5] of 10 to 50 nM.

With `C[C@@H]1CN(CC(CC#N)n2cc(-c3ncnc4[nH]ccc34)cn2)CCN1C(=O)c1ccc(C#N)cc1F` (mixture of isomers) [Example 161, 4-[((2R)-4-{3-cyano-2-[4-(7H-pyrrolo[2,3-d]pyrimidin-4-yl)-1H-pyrazol-1-yl]propyl}-2-methylpiperazin-1-yl)carbonyl]-3-fluorobenzonitrile] the IC50 (Jak2 (a.a. 828-1132); [2]) was over 100 nM and the IC50 [1, 3] was 50 to 100 nM.

`Cc1cc(Cl)ccc1C(=O)N1CCCN(CC(CC#N)n2cc(-c3ncnc4[nH]ccc34)cn2)CC1` (centres unmarked) [Example 105, 4-[4-(4-chloro-2-methylbenzoyl)-1,4-diazepan-1-yl]-3-[4-(7H-pyrrolo[2,3-d]pyrimidin-4-yl)-1H-pyrazol-1-yl]butanenitrile] was tested, and the IC50 (Jak2 (a.a. 828-1132); [2]) was over 100 nM and the IC50 [1, 3] was 20 to 50 nM.

With `N#CCC(CN1CCN(S(=O)(=O)c2ccccc2C#N)CC1)n1cc(-c2ncnc3[nH]ccc23)cn1` (centres unmarked) [Example 60, 2-(4-(2-(4-(7H-pyrrolo[2,3-d]pyrimidin-4-yl)-1H-pyrazol-1-yl)-3-cyanopropyl)piperazin-1-ylsulfonyl)benzonitrile] the IC50 (Jak2 (a.a. 828-1132); [4]) was under 10 nM and the IC50 [1, 5] was under 10 nM.

In the case of `N#CCC(CN1CCN(C(=O)c2ccc(C(F)(F)F)cc2F)CC1)n1ccc(-c2ncnc3[nH]ccc23)c1` (centres unmarked) [Example 78, 3-(3-(7H-pyrrolo[2,3-d]pyrimidin-4-yl)-1H-pyrrol-1-yl)-4-(4-(2-fluoro-4-(trifluoromethyl)benzoyl)piperazin-1-yl)butanenitrile], the IC50 (Jak2 (a.a. 828-1132); [4]) is reported as 10 to 50 nM and the IC50 [1, 5] is reported as under 10 nM.

Work on `N#CCC(CN1CCN(C(=O)c2cc(F)cc(Cl)c2)CC1)n1cc(-c2ncnc3[nH]ccc23)cn1` (centres unmarked) [Example 46, 3-(4-(7H-pyrrolo[2,3-d]pyrimidin-4-yl)-1H-pyrazol-1-yl)-4-(4-(3-chloro-5-fluorobenzoyl)piperazin-1-yl)butanenitrile trifluoroacetate salt] yielded an IC50 (Jak2 (a.a. 828-1132); [4]) of 10 to 50 nM and an IC50 [1, 5] of under 10 nM.

`N#CCC(CN1CCN(C(=O)Nc2ccccc2OC(F)(F)F)CC1)n1cc(-c2ncnc3[nH]ccc23)cn1` (centres unmarked) [Example 75] gave an IC50 (Jak2 (a.a. 828-1132); [4]) of 50 to 100 nM and an IC50 [1, 5] of 10 to 50 nM.

With `N#CCC(CN1CCN(C(=O)c2c(F)cc(C#N)cc2F)CC1)n1cc(-c2ncnc3[nH]ccc23)cn1` (centres unmarked) [Example 15, 4-[(4-{3-cyano-2-[4-(7H-pyrrolo[2,3-d]pyrimidin-4-yl)-1H-pyrazol-1-yl]propyl}piperazin-1-yl)carbonyl]-3,5-difluorobenzonitrile phosphate Salt] the IC50 (Jak2 (a.a. 828-1132); [4]) was 50 to 100 nM and the IC50 [1, 5] was under 10 nM.

For `Cc1c(Nc2cc(F)ccc2F)ncnc1N1CCC(C(CC#N)n2cc(-c3ncnc4[nH]ccc34)cn2)CC1` (centres unmarked) [Example 149, 3-(4-(7H-pyrrolo[2,3-d]pyrimidin-4-yl)-1H-pyrazol-1-yl)-3-(1-(6-(2,5-difluorophenylamino)-5-methylpyrimidin-4-yl)piperidin-4-yl)propanenitrile], the IC50 (Jak2 (a.a. 828-1132); [2]) was over 100 nM and the IC50 [1, 3] was under 20 nM.

Work on `N#CCC(CN1CCCN(S(=O)(=O)c2ccccc2Oc2ccccc2)CC1)n1cc(-c2ncnc3[nH]ccc23)cn1` (centres unmarked) [Example 113, 4-{4-[(2-phenoxyphenyl)sulfonyl]-1,4-diazepan-1-yl}-3-[4-(7H-pyrrolo[2,3-d]pyrimidin-4-yl)-1H-pyrazol-1-yl]butanenitrile] yielded an IC50 (Jak2 (a.a. 828-1132); [2]) of over 100 nM and an IC50 [1, 3] of 20 to 50 nM.

`COc1c(F)cc(C(=O)N2CCN(CC(CC#N)n3cc(-c4ncnc5[nH]ccc45)cn3)CC2)cc1F` (centres unmarked) [Example 55, 3-(4-(7H-pyrrolo[2,3-d]pyrimidin-4-yl)-1H-pyrazol-1-yl)-4-(4-(3,5-difluoro-4-methoxybenzoyl)piperazin-1-yl)butanenitrile] showed an IC50 (Jak2 (a.a. 828-1132); [4]) of 50 to 100 nM and an IC50 [1, 5] of 10 to 50 nM.

For `Cc1ccc(S(=O)(=O)N2CCN(CC(CC#N)n3cc(-c4ncnc5[nH]ccc45)cn3)CC2)nc1` (centres unmarked) [Example 63, 3-(4-(7H-pyrrolo[2,3-d]pyrimidin-4-yl)-1H-pyrazol-1-yl)-4-(4-(5-methylpyridin-2-ylsulfonyl)piperazin-1-yl)butanenitrile], the IC50 (Jak2 (a.a. 828-1132); [4]) was under 10 nM and the IC50 [1, 5] was under 10 nM.

Compound `CCC(CN1CCN(C(=O)c2ccc(F)cc2OC)CC1)n1cc(-c2ncnc3[nH]ccc23)cn1` (centres unmarked) [Example 125, (4-(2-(4-(7H-pyrrolo[2,3-d]pyrimidin-4-yl)-1H-pyrazol-1-yl)butyl)piperazin-1-yl)(4-fluoro-2-methoxyphenyl)methanone] has an IC50 (Jak2 (a.a. 828-1132); [2]) of over 100 nM and an IC50 [1, 3] of 20 to 50 nM.

In the case of `CCC(CN1CCN(S(=O)(=O)c2ccn(C)n2)CC1)n1cc(-c2ncnc3[nH]ccc23)cn1` (centres unmarked) [Example 115, 4-{1-[1-({4-[(1-methyl-1H-pyrazol-3-yl)sulfonyl]piperazin-1-yl}methyl)propyl]-1H-pyrazol-4-yl}-7H-pyrrolo[2,3-d]pyrimidine], the IC50 (Jak2 (a.a. 828-1132); [2]) is reported as 20 to 50 nM and the IC50 [1, 3] is reported as under 20 nM.

With `Cc1cc(F)ccc1C(=O)N1CCN(CC(CC#N)n2cc(-c3ncnc4[nH]ccc34)cn2)CC1` (centres unmarked) [Example 47, 3-(4-(7H-pyrrolo[2,3-d]pyrimidin-4-yl)-1H-pyrazol-1-yl)-4-(4-(4-fluoro-2-methylbenzoyl)piperazin-1-yl)butanenitrile] the IC50 (Jak2 (a.a. 828-1132); [4]) was 10 to 50 nM and the IC50 [1, 5] was under 10 nM.
